The results in this text go back to publication PMC7327804 (Data in Brief, 2020).

For assay [1], the system named is NTS1 (p42/p44 MAPK phosphorylation). The assay is described as follows: Western blot of p42/p44 (ERK1/2) phosphorylation in CHO-K1 cells stably expressing NTS1. It counts as cell-based, human. The settings on record: CHO-K1 cells stably expressing NTS1, serum-starved, 1 µM ligand, various time points. The method, then: (§1) Cells stably expressing NTS1 or NTS2 were grown for 48 h in complete culture media before being incubated for 16 h in serum-free media. Cells were then stimulated with either NT or JMV2009. Aspiration of media and addition of ice-cold PBS blocked any further protein phosphorylation. Cells were then lysed in RIPA containing proteases and phosphatases inhibitors before being centrifuged at 8000 g for 15 min.
(§2) Separation, transfer and blotting steps were performed as described previously using anti-phosphorylated ERK1/2 (Cell Signaling, cat# 4376S, lot 18, Danvers, MA; 1:1000, in TBS-T, 1% BSA) or anti-ERK1/2 (Cell Signaling, cat# 4695S, lot 28; 1:1000, in TBS-T, 1% BSA) as primary antibodies and HRP-conjugated anti-rabbit IgG from goat (Cell Signaling, cat# 7074S, lot 28; 1:5000, in TBS-T, 1% BSA) as secondary antibody for detection.
For orientation: In western blotting, separated proteins are transferred to a membrane and probed.

Assay [2] has as its system NTS2 (p42/p44 MAPK phosphorylation). The assay is described as follows: Western blot of p42/p44 (ERK1/2) phosphorylation in 1321N1 cells stably expressing NTS2. The settings on record: 1321N1 cells stably expressing NTS2, serum-starved, 1 µM ligand, various time points. Type of assay: cell-based, human. The procedure:
as §1, §2

Another assay has as its target T1, HA-hNTS2 receptor (Homo sapiens, UniProt O95665).
T1 construct: expressed in transfected cells; host or cells: CHO-K1, transient transfection
The assay can be described thus: Cell-surface ELISA for internalization of HA-hNTS2 receptor. Type of assay: cell-based. The settings on record: CHO-K1 cells transfected with HA-hNTS2, 1 µM ligand, 60 min at 37 °C in serum-free media, mean ± SEM of at least three independent determinations. (ELISA stands for enzyme-linked immunosorbent assay.)

T1 sequence (O95665 whole entry): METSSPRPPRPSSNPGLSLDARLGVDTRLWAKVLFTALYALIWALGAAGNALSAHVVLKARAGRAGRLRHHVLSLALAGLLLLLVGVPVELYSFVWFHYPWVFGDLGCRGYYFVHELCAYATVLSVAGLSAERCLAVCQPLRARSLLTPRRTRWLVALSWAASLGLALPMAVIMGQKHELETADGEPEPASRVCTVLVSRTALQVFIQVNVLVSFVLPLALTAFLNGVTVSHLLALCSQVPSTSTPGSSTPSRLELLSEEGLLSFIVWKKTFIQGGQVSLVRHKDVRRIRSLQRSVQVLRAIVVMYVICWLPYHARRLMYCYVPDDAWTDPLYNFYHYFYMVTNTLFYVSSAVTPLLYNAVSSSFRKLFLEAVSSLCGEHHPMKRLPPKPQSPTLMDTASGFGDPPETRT
Description for HA-hNTS2 receptor: Receptor internalization using CHO-K1 cells transiently transfected with either HA-NTS1 or HA-NTS2 was carried out as previously described in details [9], [10], [11]. […] Cells were then washed with PBS and remaining ELISA steps form the detailed protocol were followed and unchanged. Absorbance was read at 450 nm and data were normalized according to the protocol.

Take `CC[C@H](C)[C@H](NC(=O)[C@H](Cc1ccc(O)cc1)NC(=O)[C@@H]1C[Si](C)(C)CN1C(=O)[C@H](CCCCN)NC(=O)[C@@H](N)CCCCN)C(=O)N[C@@H](CC(C)C)C(=O)O` [JMV2009]: the “phosphorylation of p42/p44 proteins (ERK 1/2), NTS1 cells” value in assay [1] is “time-dependent phosphorylation”. Besides, the “phosphorylation of p42/p44 proteins (ERK 1/2), NTS2 cells” value in assay [2] was “time-dependent phosphorylation”. The NTS2 internalization on HA-hNTS2 receptor is reported as 15.1 ± 9.8%.
